Measurements reported in patent US20230113037A1 (Bayer Aktiengesellschaft, priority 2019, published 2023).
Where two headings read alike, the source gives them in different places.

Tests used:
[1] = target: T1, AHR (Homo sapiens, UniProt P35869); test: In vitro assay 1: antagonism in human cell line (AHR transactivation, firefly luciferase reporter, kynurenic acid prestimulated); format: cell-based; settings: AHR Antagonism Human IC50 [M], firefly luciferase reporter
T1 construct: U87 MG glioblastoma cells (ATCC #HTB-14) endogenously expressing AHR; endogenous in cells; host or cells: U87 MG glioblastoma cells (ATCC #HTB-14)
T1 sequence (P35869 11-848): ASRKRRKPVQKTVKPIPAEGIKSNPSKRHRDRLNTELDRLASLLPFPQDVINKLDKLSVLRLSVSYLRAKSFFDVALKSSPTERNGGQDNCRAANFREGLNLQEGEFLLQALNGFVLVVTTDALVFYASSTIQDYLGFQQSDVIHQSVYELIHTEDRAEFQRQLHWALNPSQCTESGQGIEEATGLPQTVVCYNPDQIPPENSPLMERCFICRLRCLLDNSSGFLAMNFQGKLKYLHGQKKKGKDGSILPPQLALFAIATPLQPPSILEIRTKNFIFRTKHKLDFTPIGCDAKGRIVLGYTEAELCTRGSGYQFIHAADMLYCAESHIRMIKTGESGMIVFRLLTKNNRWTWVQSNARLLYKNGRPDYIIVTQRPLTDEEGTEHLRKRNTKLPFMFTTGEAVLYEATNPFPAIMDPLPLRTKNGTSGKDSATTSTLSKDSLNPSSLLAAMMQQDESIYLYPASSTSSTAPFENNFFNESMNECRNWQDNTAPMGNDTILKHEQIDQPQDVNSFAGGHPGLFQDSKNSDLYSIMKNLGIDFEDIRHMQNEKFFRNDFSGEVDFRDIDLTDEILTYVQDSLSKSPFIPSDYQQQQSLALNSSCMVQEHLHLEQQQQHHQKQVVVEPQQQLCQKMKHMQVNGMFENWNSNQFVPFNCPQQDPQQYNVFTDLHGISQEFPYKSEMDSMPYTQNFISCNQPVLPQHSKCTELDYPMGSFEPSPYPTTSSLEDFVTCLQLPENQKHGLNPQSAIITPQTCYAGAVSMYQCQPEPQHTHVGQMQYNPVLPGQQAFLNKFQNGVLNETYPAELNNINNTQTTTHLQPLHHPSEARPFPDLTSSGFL
Outline: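 U87 MG + DRE-firefly/constitutive-Renilla stable reporters; kynurenic acid prestim; dual-luc read; Renilla = tox; normalized vs pos/neg controls (pos: 150 μM KYNA + 5 μM staurosporine).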

[2] = target: T2, AHR (Mus musculus, UniProt P30561); test: In vitro assay 3: antagonism in mouse cell line (AHR transactivation, firefly luciferase reporter, kynurenic acid prestimulated); format: cell-based
T2 sequence (P30561 1-848 P471L/N533S/M589L): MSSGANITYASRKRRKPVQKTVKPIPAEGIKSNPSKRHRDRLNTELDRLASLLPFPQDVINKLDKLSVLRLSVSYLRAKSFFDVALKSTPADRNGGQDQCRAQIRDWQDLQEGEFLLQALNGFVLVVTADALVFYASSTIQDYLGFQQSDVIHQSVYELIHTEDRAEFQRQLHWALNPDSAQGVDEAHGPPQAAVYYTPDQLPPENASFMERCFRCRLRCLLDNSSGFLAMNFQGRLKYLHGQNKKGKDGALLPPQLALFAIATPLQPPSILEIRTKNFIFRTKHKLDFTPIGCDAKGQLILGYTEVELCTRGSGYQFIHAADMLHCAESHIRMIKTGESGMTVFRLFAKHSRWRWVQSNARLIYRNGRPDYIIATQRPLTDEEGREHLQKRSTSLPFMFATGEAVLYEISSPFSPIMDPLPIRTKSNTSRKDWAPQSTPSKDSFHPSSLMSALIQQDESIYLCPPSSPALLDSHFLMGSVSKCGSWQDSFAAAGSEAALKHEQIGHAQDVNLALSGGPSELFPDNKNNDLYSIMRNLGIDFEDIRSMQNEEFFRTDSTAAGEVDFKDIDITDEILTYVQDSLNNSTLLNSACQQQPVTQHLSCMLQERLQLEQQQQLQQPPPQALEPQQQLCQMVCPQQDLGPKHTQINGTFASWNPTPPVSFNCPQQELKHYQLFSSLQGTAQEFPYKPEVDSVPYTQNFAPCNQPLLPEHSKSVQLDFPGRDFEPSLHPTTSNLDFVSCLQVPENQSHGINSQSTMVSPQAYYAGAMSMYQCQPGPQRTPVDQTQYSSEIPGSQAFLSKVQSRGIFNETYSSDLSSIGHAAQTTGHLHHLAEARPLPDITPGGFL
Outline: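 Mouse cells stably carrying a DRE-driven AHR-inducible firefly luciferase reporter were prestimulated with the endogenous agonist kynurenic acid before compound addition. Luciferase read by SteadyGlo; cells without kynurenic acid served as full-inhibition control, with normalization to positive and negative controls. Repeat tests reported as mean or median.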

[3] = Hepa 1c1c7 cells, 200 μM kynurenic acid, 20 hours, firefly luciferase reporter, read-out: AHR Antagonism Mouse IC50

Row | SMILES | IC50 [1] | IC50 [2, 3] | IC50 ([2]; read-out: AHR Antagonism Mouse IC50, Hepa 1c1c7 cells, 200 μM kynurenic acid, 20 hours, firefly luciferase reporter)
1 | Cn1cc(-c2nc3c4cccc(Br)c4nc(N[C@H]4CSCCNC4=O)n3n2)cn1 [Example 841, (6R)-6-{[7-bromo-2-(1-methyl-1H-pyrazol-4-yl)[1,2,4]triazolo[1,5-c]quinazolin-5-yl]amino}-1,4-thiazepan-5-one] | 1.82e-09 M | 3.01 nM | –
2 | COc1ccc(-c2nc3c4cccc(S(C)(=O)=O)c4nc(N[C@@H]4CCCCNC4=O)n3n2)cc1 [Example 842, (3R)-3-{[7-(methanesulfonyl)-2-(4-methoxyphenyl)[1,2,4]triazolo[1,5-c]quinazolin-5-yl]amino}azepan-2-one] | 4.03e-10 M | 9.92 nM | –
3 | COc1ccc(-c2nc3c4cccc(S(=O)(=O)C(C)C)c4nc(N[C@@H]4CCCCNC4=O)n3n2)cc1 [Example 843, (3R)-3-{[2-(4-methoxyphenyl)-7-(propane-2-sulfonyl)[1,2,4]triazolo[1,5-c]quinazolin-5-yl]amino}azepan-2-one] | 4.46e-09 M | 11.1 nM | –
4 | CCS(=O)(=O)c1cccc2c1nc(N[C@@H]1CCCCNC1=O)n1nc(-c3ccc(OC)cc3)nc21 [Example 844, (3R)-3-{[7-(ethanesulfonyl)-2-(4-methoxyphenyl)[1,2,4]triazolo[1,5-c]quinazolin-5-yl]amino}azepan-2-one] | 1.76e-09 M | 10.9 nM | –
5 | CC(C)S(=O)(=O)c1cccc2c1nc(N[C@@H]1CCCCNC1=O)n1nc(-c3cnn(C)c3)nc21 [Example 845, (3R)-3-{[2-(1-methyl-1H-pyrazol-4-yl)-7-(propane-2-sulfonyl)[1,2,4]triazolo[1,5-c]quinazolin-5-yl]amino}azepan-2-one] | 6.71e-08 M | 247 nM | –
6 | CC(C)n1cc(-c2nc3c4cccc(S(C)(=O)=O)c4nc(N[C@@H]4CCCCNC4=O)n3n2)cn1 [Example 846, (3R)-3-({7-(methanesulfonyl)-2-[1-(propan-2-yl)-1H-pyrazol-4-yl][1,2,4]triazolo[1,5-c]quinazolin-5-yl}amino)azepan-2-one] | 1.29e-08 M | 232 nM | –
7 | CCn1cc(-c2nc3c4cccc(S(C)(=O)=O)c4nc(N[C@@H]4CCCCNC4=O)n3n2)c(C)n1 [Example 847, (3R)-3-{[2-(1-ethyl-3-methyl-1H-pyrazol-4-yl)-7-(methanesulfonyl)[1,2,4]triazolo[1,5-c]quinazolin-5-yl]amino}azepan-2-one] | 3.02e-09 M | 60.1 nM | –
8 | Cn1cc(-c2nc3c4cccc(Br)c4nc(N[C@H]4CS(=O)(=O)CCNC4=O)n3n2)cn1 [Example 848, (6R)-6-{[7-bromo-2-(1-methyl-1H-pyrazol-4-yl)[1,2,4]triazolo[1,5-c]quinazolin-5-yl]amino}-1λ^6,4-thiazepane-1,1,5-trione] | 1.69e-07 M | 197 nM | –
9 | COc1ccc(-c2nc3c4cccc(Br)c4nc(N[C@@H]4CS(=O)(=O)CCNC4=O)n3n2)cc1 [Example 851, (6S)-6-{[7-bromo-2-(4-methoxyphenyl)[1,2,4]triazolo[1,5-c]quinazolin-5-yl]amino}-1λ^6,4-thiazepane-1,1,5-trione] | 9.17e-10 M | – | 1.76 nM
10 | CC(C)n1cc(-c2nc3c4cccc(C(F)(F)F)c4nc(N[C@@H]4CS(=O)(=O)CCNC4=O)n3n2)cn1 [Example 852, (6S)-6-({2-[1-(propan-2-yl)-1H-pyrazol-4-yl]-7-(trifluoromethyl)[1,2,4]triazolo[1,5-c]quinazolin-5-yl}amino)-1λ^6,4-thiazepane-1,1,5-trione] | 8.28e-09 M | 66.2 nM | –
11 | Cn1cc(-c2nc3c4cccc(S(C)(=O)=O)c4nc(N[C@@H]4CCCCNC4=O)n3n2)cn1 [Example 858, (3R)-3-{[7-(methanesulfonyl)-2-(1-methyl-1H-pyrazol-4-yl)[1,2,4]triazolo[1,5-c]quinazolin-5-yl]amino}azepan-2-one] | 1.07e-07 M | 1560 nM | –
12 | COc1ccc(-c2nc3c4cccc(C(C)(C)O)c4nc(N[C@@H]4CCCCNC4=O)n3n2)cc1 [Example 859, (3R)-3-{[7-(2-hydroxypropan-2-yl)-2-(4-methoxyphenyl)[1,2,4]triazolo[1,5-c]quinazolin-5-yl]amino}azepan-2-one] | 4.11e-09 M | 39.4 nM | –
13 | COc1ccc(-c2nc3c4cccc(CO)c4nc(N[C@@H]4CCCCNC4=O)n3n2)cc1 [Example 860, (3R)-3-{[7-(hydroxymethyl)-2-(4-methoxyphenyl)[1,2,4]triazolo[1,5-c]quinazolin-5-yl]amino}azepan-2-one] | 9.26e-10 M | 16 nM | –
14 | COc1ccc(-c2nc3c4c(CO)cccc4nc(N[C@@H]4CCCCNC4=O)n3n2)cc1 [Example 862, (3R)-3-{[10-(hydroxymethyl)-2-(4-methoxyphenyl)[1,2,4]triazolo[1,5-c]quinazolin-5-yl]amino}azepan-2-one] | 1.86e-09 M | 4.12 nM | –
15 | COc1ccc(-c2nc3c4cccc(CSC)c4nc(N[C@@H]4CCCCNC4=O)n3n2)cc1 [Example 863, (3R)-3-({2-(4-methoxyphenyl)-7-[(methylsulfanyl)methyl][1,2,4]triazolo[1,5-c]quinazolin-5-yl}amino)azepan-2-one] | 2.98e-09 M | 12.9 nM | –
16 | CCOC(=O)[C@@H](C)Nc1nc2c(C(F)(F)F)cccc2c2nc(-c3cnn(C)c3)nn12 [Example 864, ethyl N-[2-(1-methyl-1H-pyrazol-4-yl)-7-(trifluoromethyl)[1,2,4]triazolo[1,5-c]quinazolin-5-yl]-D-alaninate] | 2.57e-08 M | 378 nM | –
17 | CCOC(=O)[C@@H](C)Nc1nc2c(Br)cccc2c2nc(-c3ccc(OC)cc3)nn12 [Example 865, ethyl N-[7-bromo-2-(4-methoxyphenyl)[1,2,4]triazolo[1,5-c]quinazolin-5-yl]-D-alaninate] | 4.02e-09 M | 11.8 nM | –
18 | CCOC(=O)[C@@H](C)Nc1nc2c(Br)cccc2c2nc(-c3cnn(C)c3)nn12 [Example 866, ethyl N-[7-bromo-2-(1-methyl-1H-pyrazol-4-yl)[1,2,4]triazolo[1,5-c]quinazolin-5-yl]-D-alaninate] | 5.75e-08 M | 144 nM | –
19 | COC(=O)[C@H](Nc1nc2c(Br)cccc2c2nc(-c3ccc(OC)cc3)nn12)C(C)C [Example 867, methyl N-[7-bromo-2-(4-methoxyphenyl)[1,2,4]triazolo[1,5-c]quinazolin-5-yl]-D-valinate] | 2.6e-09 M | 3 nM | –
20 | COC(=O)[C@H](Nc1nc2c(Br)cccc2c2nc(-c3cnn(C)c3)nn12)C(C)C [Example 868, methyl N-[7-bromo-2-(1-methyl-1H-pyrazol-4-yl)[1,2,4]triazolo[1,5-c]quinazolin-5-yl]-D-valinate] | 6.28e-09 M | 6.29 nM | –
21 | COc1ccc(-c2nc3c4cccc(Br)c4nc(N[C@H](C)C(=O)O)n3n2)cc1 [Example 870] | 1.09e-08 M | 10.7 nM | –
22 | COc1ccc(-c2nc3c4cccc(Br)c4nc(N[C@@H](C(=O)O)C(C)C)n3n2)cc1 [Example 872, N-[7-bromo-2-(4-methoxyphenyl)[1,2,4]triazolo[1,5-c]quinazolin-5-yl]-D-valine] | 6.57e-09 M | 15.8 nM | –
